From patent US20050215544A1, “Methods of treating HIV infection” (priority 2004, published 2005)

Legend:
uninfected cells = assay: Cytotoxicity assay of the drug combinations in uninfected cells (MTS); format: cell-based; conditions: combination with Compound 1 at highest concentrations tested, six days
Method: Drug Susceptibility and Cytotoxicity Assays. […] Each drug ratio consisted of an array of 3-fold serial dilutions, and was performed in quadruplicate. The plates were incubated at 37° C./5% CO2. […] On day-five post-infection, 20 μl from each well was harvested and quantitated by a reverse transcriptase (RT) assay, or in samples involving non-nucleoside RT inhibitors, an MTS assay. The PM-1 cells infected with HIV-1 Bal and used for studying the combinations with CCR5 inhibitors were incubated for six days. On day-six post-infection, 20 μl from each well was harvested, 20- and 50-fold diluted and quantitated by p24 assay. Cytotoxicity assays were performed using uninfected cells, exposed to the same drug combinations, and incubated for six days. Cell viability was determined by an MTS assay. The CC50 values were calculated by using the exponential form of the median effect equation as mentioned below for calculation of EC50.

HIV-1 LAI [1] = assay: Two-drug combination antiviral assay with Compound 1 (combination indices, Chou and Rideout); format: cell-based; conditions: combination with Compound 1; for Combination Indices at 50% HIV Inhibition (Confidence Interval) / Combination Indices at 75% HIV Inhibition (Confidence Interval) / Combination Indices at 90% HIV Inhibition (Confidence Interval): 95% CI in parenthesis; for Overall Result of two-drug combination: all ratios and inhibition levels
Method: (§1) Virus and cell lines. The T-cell lines, MT-2 and PM-1 were obtained through the AIDS Research and Reference Reagent Program, NIAID, and were contributed by Dr. D. Richman and Dr. R. Gallo, respectively. Both cell lines were cultured in RPMI 1640 medium supplemented with 10% fetal bovine serum, 2 mM L-glutamine and sub-cultured twice a week. The LAI strain of HIV-1 was obtained from the Fred Hutchinson Cancer Research Center, and the Bal strain was from NIH. Both virus stocks were amplified and titered in MT-2 cells (LAI) and PM-1 cells (Bal) using a virus infectivity assay.
(§2) Drug Susceptibility and Cytotoxicity Assays. For drug susceptibility assays, MT-2 cells were infected with HIV-1 LAI (or PM-1 cells with HIV-1 Bal) at an MOI of 0.005, and seeded into 96-well microtiter plates ([…] cells/ml) containing serial dilutions of test compounds. […] Each drug ratio consisted of an array of 3-fold serial dilutions, and was performed in quadruplicate. The plates were incubated at 37° C./5% CO2. The MT-2 cells infected with HIV-1 LAI were incubated for 5 days. On day-five post-infection, 20 μl from each well was harvested and quantitated by a reverse transcriptase (RT) assay, or in samples involving non-nucleoside RT inhibitors, an MTS assay. The PM-1 cells infected with HIV-1 Bal and used for studying the combinations with CCR5 inhibitors were incubated for six days. On day-six post-infection, 20 μl from each well was harvested, 20- and 50-fold diluted and quantitated by p24 assay. Cytotoxicity assays were performed using uninfected cells, exposed to the same drug combinations, and incubated for six days. Cell viability was determined by an MTS assay. The CC50 values were calculated by using the exponential form of the median effect equation as mentioned below for calculation of EC50.
Analysis of Drug Combination Effects. For determination of CI values, drugs were diluted in a fixed ratio and multiple ratios were analyzed. The drug serial dilutions spanned a range of concentrations near the EC50 value of each compound, so that equivalent antiviral activities could be compared. Concentration-response curves were estimated for each individual drug and every combination using the median-effect equation. The equation was fit using a nonlinear regression routine (Proc Nlin) in PC SAS version 8.01 (SAS Institute Inc., SAS Version 8.01, Cary, NC: SAS Institute Inc., 1990).
(§3) In this equation, Fa stands for “fraction affected,” and represents the fraction of the viral load that has been inactivated. […] ED50 is drug concentration that is expected to reduce the amount of virus by 50%, and m is a parameter that reflects the slope of the concentration-response curve.
To assess antiviral effects of different drug combination treatments, combination indices (CIs) were calculated according to Chou and Rideout. The combination index was computed as CI=[D]1/[Dm]1+[D]2/[Dm]2
In this equation [Dm]1 and [Dm]2 are the concentrations of drugs that would individually produce a specific level of effect, while [D]1 and [D]2 are the concentrations of drugs in combination that would produce the same level of effect.
Theoretically, additivity is implied if the CI is equal to one, synergy if the CI is less than one, and antagonism if the CI is greater than one. […] At best, we can construct a range that contains the likely values for the CI, given the noise in the data. In this report, these ranges are reported in parentheses next to each point estimate of the CI. […] If the range fell entirely above 1.0, we would infer antagonistic behavior. If the range were to include 1.0, we would infer additivity.

HIV-1 LAI [2] = assay: microbe, parasite or virus in culture; conditions: Human immunodeficiency virus 1, MT2, 120 h
Method: as §1, §2, §3
In carrying out the combination experiments below, the EC50 for Compound 1 and each comparator compound was determined during the course of each study, and used in the subsequent data analysis.

[3] = EC50 ratio 1:1 (Compound 1 to comparator)
[4] = EC50 ratio 1:2.5 (Compound 1 to comparator)
[5] = EC50 ratio 2.5:1 (Compound 1 to comparator)

Row | Structure (SMILES) | Cytotoxicity of the drug combination (uninfected cells) | Combination Indices at 50% HIV Inhibition (Confidence Interval) (HIV-1 LAI [1]; [3]) | Combination Indices at 75% HIV Inhibition (Confidence Interval) (HIV-1 LAI [1]; [3]) | Combination Indices at 90% HIV Inhibition (Confidence Interval) (HIV-1 LAI [1]; [3]) | Combination Indices at 50% HIV Inhibition (Confidence Interval) (HIV-1 LAI [1]; [4]) | Combination Indices at 75% HIV Inhibition (Confidence Interval) (HIV-1 LAI [1]; [4]) | Combination Indices at 90% HIV Inhibition (Confidence Interval) (HIV-1 LAI [1]; [4]) | Combination Indices at 50% HIV Inhibition (Confidence Interval) (HIV-1 LAI [1]; [5]) | Combination Indices at 75% HIV Inhibition (Confidence Interval) (HIV-1 LAI [1]; [5]) | Combination Indices at 90% HIV Inhibition (Confidence Interval) (HIV-1 LAI [1]; [5]) | Overall Result of two-drug combination (HIV-1 LAI [1]) | EC50 (HIV-1 LAI [2]) [nM]
1 | c1cc(CN2CCCNCCNCCCNCC2)ccc1CN1CCCNCCNCCCNCC1 [AMD-3100] | No significant cytotoxicity | 0.51 (0.34, 0.69) | 0.63 (0.33, 0.94) | 0.89 (0.22, 1.57) | 0.65 (0.49, 0.80) | 0.55 (0.37, 0.74) | 0.58 (0.27, 0.89) | 0.56 (0.38, 0.73) | 0.62 (0.18, 0.90) | 0.74 (0.22, 1.26) | moderate synergistic | 4
2 | CON(Cc1ccc(F)cc1)C(=O)C=C(O)C(=O)O [Compound 2, 3-[(4-Fluorobenzyl)methoxycarbamoyl]-2-hydroxyacrylic acid] | No significant cytotoxicity | 0.42 (0.32, 0.52) | 0.49 (0.33, 0.64) | 0.57 (0.28, 0.85) | 0.38 (0.30, 0.46) | 0.42 (0.30, 0.55) | 0.48 (0.26, 0.69) | 0.46 (0.34, 0.59) | 0.66 (0.41, 0.92) | 0.96 (0.37, 1.54) | Synergistic | 84
3 | CC(C)(C)NC(=O)[C@@H]1C[C@@H]2CCCC[C@@H]2CN1C[C@@H](O)[C@H](Cc1ccccc1)NC(=O)[C@H](CC(N)=O)NC(=O)c1ccc2ccccc2n1 [Saquinavir] |  | 0.50 (0.40, 0.61) | 0.92 (0.64, 1.19) | 1.71 (0.90, 2.51) | 0.24 (0.21, 0.26) | 0.32 (0.27, 0.36) | 0.43 (0.33, 0.52) | 0.14 (0.12, 0.16) | 0.31 (0.25, 0.37) | 0.68 (0.45, 0.92) | Additive- | 4
